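1) Cells in 96-well plates. 2) Compound, 48 h, 5 concentrations. 3) Linear interpolation between surrounding doses. 4) Unreached endpoint = highest concentration. Here, GI50 denotes the concentration required for 50% inhibition of growth. The concentration for full growth arrest is given as TGI.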 Where a SMILES comes first, the peptide text is derived from it. [ ]: non-standard residue; d: D form. The star is where a group is joined. ξ: configuration not given here. Propanoyl(3-(4-MeO-Ph)) = COc1ccc(CCC(=O)*)cc1; Thr(3ξ) = CC(O)[C@H](N)C(=O)O; dNMeL = CN[C@H](CC(C)C)C(=O)O; OBn = c1ccc(CO*)cc1; ξLac = CC(O)C(=O)O

Test systems include NCI-H460 lung; SR leukemia; OVCAR-5 ovarian; UO-31 renal; CAKI-1 renal; 786-0 renal; COLO 205 colon; SF-295 CNS; NCI/ADR-RES ovarian; IGROV1 ovarian.
Common to all, as to test: NCI anticancer screen, dose series, 48 h

Take `C=C1SC(=Nc2ccccc2Cl)N(C(=O)c2sc3ccccc3c2Cl)C1(C)C`: the GI50 in the assay on NCI-H460 lung was 4.14 µM; in the assay on SR leukemia, 7.1 µM; in the assay on OVCAR-5 ovarian, 10.9 µM; in the assay on UO-31 renal it was 3.64 µM; in the assay on CAKI-1 renal it was 2.73 µM; in the assay on 786-0 renal it was 25.4 µM. Also, the GI50 was 3.49 µM in the assay on COLO 205 colon, 2.07 µM in the assay with SF-295 CNS, 3.71 µM with NCI/ADR-RES ovarian and 6.2 µM with IGROV1 ovarian. Further, the TGI with NCI-H460 lung was > 57.1 µM; in the assay on SR leukemia, > 39.6 µM; with OVCAR-5 ovarian, > 100 µM; with UO-31 renal it was > 100 µM; with CAKI-1 renal, 19.4 µM; with 786-0 renal, > 81.9 µM. Further, the TGI in the assay with COLO 205 colon was 11 µM; with SF-295 CNS it was 10.7 µM; with NCI/ADR-RES ovarian, > 53 µM; in the assay with IGROV1 ovarian it was > 100 µM.

Consider `CCC(c1ccc(OC)cc1)C(CC)c1ccc(O)c(CN2CCCC2)c1` (stereo not given), for which the GI50 with NCI-H460 lung was 3.41 µM; in the assay on SR leukemia it was 1.49 µM; in the assay on OVCAR-5 ovarian, 12.3 µM; in the assay with UO-31 renal, 3.91 µM; in the assay with CAKI-1 renal it was 6.1 µM; in the assay on 786-0 renal, 2.06 µM. The GI50 was 1.81 µM with COLO 205 colon, 2.12 µM with SF-295 CNS, 5.92 µM in the assay on NCI/ADR-RES ovarian and 8.63 µM in the assay on IGROV1 ovarian. In addition, the TGI with NCI-H460 lung came to 11.6 µM; with SR leukemia, 4.62 µM; with OVCAR-5 ovarian, 27.8 µM; in the assay with UO-31 renal, 17 µM; with CAKI-1 renal, 20 µM; in the assay with 786-0 renal, 5.12 µM. Moreover, the TGI came to 3.71 µM in the assay on COLO 205 colon, 4.85 µM in the assay with SF-295 CNS, 22.3 µM in the assay with NCI/ADR-RES ovarian and 23.6 µM in the assay with IGROV1 ovarian.

In the case of `O=S(=O)(NCCCNc1cc(-c2cn(-c3ccccc3)nc2-c2cccc(O)c2)ccn1)c1cccc2ccccc12`, the GI50 is 2.89 µM with NCI-H460 lung; 1.84 µM in the assay with SR leukemia; 8.43 µM with OVCAR-5 ovarian; 2.1 µM in the assay on UO-31 renal; 3.37 µM in the assay with CAKI-1 renal; 1.59 µM in the assay with 786-0 renal. The GI50 with COLO 205 colon was 1.69 µM; in the assay on SF-295 CNS, 1.64 µM; in the assay with NCI/ADR-RES ovarian, 3.72 µM; in the assay on IGROV1 ovarian, 5.86 µM. For the same compound, the TGI in the assay with NCI-H460 lung is 10.4 µM; with SR leukemia, 7.33 µM; with OVCAR-5 ovarian it was > 100 µM; in the assay on UO-31 renal, 9.32 µM; in the assay with CAKI-1 renal it was > 100 µM; with 786-0 renal it was 3.57 µM. For the same compound, the TGI is 3.29 µM in the assay on COLO 205 colon, 4.32 µM with SF-295 CNS, > 100 µM with NCI/ADR-RES ovarian and > 100 µM with IGROV1 ovarian.

`CC(C)NC(=O)OCc1c(COC(=O)NC(C)C)c(-c2ccc[n+](COC(=O)C3CC3)c2)n2c1CCC2`: the TGI in the assay with NCI-H460 lung is > 100 µM; in the assay with SR leukemia it was > 100 µM; in the assay on OVCAR-5 ovarian, > 100 µM; in the assay with UO-31 renal, > 100 µM; with CAKI-1 renal, 89 µM; with 786-0 renal, > 100 µM. The TGI in the assay on COLO 205 colon, in the assay on SF-295 CNS, with NCI/ADR-RES ovarian and in the assay with IGROV1 ovarian was > 100 µM each time.

As to `COc1ccc(CCC(=O)OC(C)[C@H](NC(=O)[C@@H](CC(C)C)N(C)C(=O)[C@@H]2CCCN2C(=O)C(C)O)C(=O)OCc2ccccc2)cc1` (stereo not given in full) (H-[ξLac]P[dNMeL][Thr(3ξ)](Propanoyl(3-(4-MeO-Ph)))-OBn), the TGI with NCI-H460 lung, with SR leukemia, in the assay with OVCAR-5 ovarian, in the assay with UO-31 renal, with CAKI-1 renal and in the assay with 786-0 renal was > 100 µM throughout. In addition, the TGI is 39 µM in the assay on COLO 205 colon, > 100 µM in the assay with SF-295 CNS, > 100 µM in the assay on NCI/ADR-RES ovarian and 91.9 µM with IGROV1 ovarian.

As for `C#Cc1cccc(Nc2ncnc3ccc(-c4cnc(Cl)c(NS(C)(=O)=O)c4)cc23)c1`, the GI50 is 0.572 µM in the assay with NCI-H460 lung; 0.338 µM in the assay with SR leukemia; 0.329 µM in the assay on OVCAR-5 ovarian; 0.111 µM in the assay with UO-31 renal; 0.164 µM with CAKI-1 renal; 0.343 µM in the assay on 786-0 renal. For the same compound, the GI50 in the assay on COLO 205 colon is 0.648 µM; in the assay with SF-295 CNS, 0.376 µM; in the assay with NCI/ADR-RES ovarian it was 1.24 µM; in the assay on IGROV1 ovarian, 0.075 µM. For the same compound, the TGI in the assay on NCI-H460 lung was found to be 11.7 µM; in the assay on SR leukemia, 6.35 µM; in the assay with OVCAR-5 ovarian it was 2.73 µM; with UO-31 renal, 1.41 µM; in the assay with CAKI-1 renal, 1.82 µM; in the assay on 786-0 renal, 4.55 µM. Moreover, the TGI in the assay on COLO 205 colon stood at 2.12 µM; in the assay on SF-295 CNS, 2.17 µM; in the assay with NCI/ADR-RES ovarian it was 10 µM; with IGROV1 ovarian, 0.402 µM.

On to `CN(C)CCCN=c1cc2c(=O)n(CCCN(C)C)c(=O)c3c(NCCCN(C)C)cc4c(O)n(CCCN(C)C)c(=O)c1c4c3-2`, for which the GI50 in the assay on NCI-H460 lung was 0.395 µM; in the assay on SR leukemia it was 8.39 µM; in the assay on OVCAR-5 ovarian, 1.12 µM; with UO-31 renal, 2.92 µM; in the assay with CAKI-1 renal it was 6.21 µM; with 786-0 renal, 6.36 µM. Moreover, the GI50 in the assay with COLO 205 colon is 1.03 µM; in the assay on SF-295 CNS, 1.1 µM; in the assay on NCI/ADR-RES ovarian, 12.3 µM; in the assay on IGROV1 ovarian, 2.34 µM. For the same compound, the TGI with NCI-H460 lung stood at 1.86 µM; in the assay with SR leukemia, 56 µM; with OVCAR-5 ovarian, 4.09 µM; in the assay with UO-31 renal it was 12.9 µM; in the assay on CAKI-1 renal it was 29.4 µM; with 786-0 renal it was 87.4 µM. In addition, the TGI with COLO 205 colon is 2.62 µM; in the assay with SF-295 CNS, 9 µM; in the assay with NCI/ADR-RES ovarian it was > 100 µM; in the assay with IGROV1 ovarian, 8.29 µM.

`CCCC#CC(O)(C(=O)OC1CCN(C)CC1)C1CCCCC1` (stereo not given): the TGI with NCI-H460 lung, with SR leukemia, in the assay on OVCAR-5 ovarian, in the assay with UO-31 renal, in the assay on CAKI-1 renal and in the assay on 786-0 renal was > 100 µM throughout. Besides, the TGI with COLO 205 colon, with SF-295 CNS, with NCI/ADR-RES ovarian and in the assay on IGROV1 ovarian was > 100 µM each time.

Values taken from PubChem BioAssay (NCI).
